# Data published in US20060069132A1, “Azolecarboxamide herbicides” (priority 2004, published 2006).
# Assays:
# rice = test: Test B flooded paddy test; assay type: in vivo, Oryza sativa; conditions: 1000 g ai/ha, scale 0 to 100 (0 no effect, 100 complete control)
# How it was run: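 Plants grow to 1- to 4-leaf stage (2–18 cm) for postemergence spraying, or to 2-leaf stage for the paddy test. Formulated compound is applied. Greenhouse holding lasts 13–15 days. Response is scored visually relative to controls, 0 no effect to 100 complete control; a dash means no result.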
# ducksalad [1] = test: Test B flooded paddy test; assay type: in vivo, Heteranthera limosa; conditions: 1000 g ai/ha, scale 0 to 100 (0 no effect, 100 complete control)
# How it was run: (§1)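 Visual ratings, 0 (no effect) to 100 (complete control), made versus controls after 13–15 d greenhouse. Paddy plants treated at 2-leaf stage; postemergence plants at 1- to 4-leaf stage, 2–18 cm tall.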
# barnyardgrass = test: Test B flooded paddy test; assay type: in vivo, Echinochloa crus-galli; conditions: 1000 g ai/ha, scale 0 to 100 (0 no effect, 100 complete control)
# How it was run: as §1
# cocklebur = test: Test C pre-/postemergence herbicide test; assay type: in vivo, Xanthium strumarium; conditions: preemergence; for Plant response rating (0 = no effect, 100 = complete control), Cocklebur: 125 g ai/ha
# How it was run: (§2)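 Emerged plants at the 1- to 4-leaf stage (2–18 cm), or freshly planted seeds, received test chemicals in a non-phytotoxic solvent mixture with surfactant. Response was visually scored against controls after 12 to 14 days in the greenhouse, on a 0 (no effect) to 100 (complete control) scale.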
# corn = test: Test C pre-/postemergence herbicide test; assay type: in vivo, Zea mays; conditions: preemergence; for Plant response rating (0 = no effect, 100 = complete control), Corn: 125 g ai/ha
# How it was run: as §2
# goosegrass = test: Test C pre-/postemergence herbicide test; assay type: in vivo, Eleusine indica; conditions: preemergence; for Plant response rating (0 = no effect, 100 = complete control), Goosegrass: 125 g ai/ha
# How it was run: as §2
# johnsongrass = test: Test C pre-/postemergence herbicide test; assay type: in vivo, Sorghum halepense; conditions: preemergence; for Plant response rating (0 = no effect, 100 = complete control), Johnsongrass: 125 g ai/ha
# How it was run: as §2
# lambsquarters = test: Test C pre-/postemergence herbicide test; assay type: in vivo, Chenopodium album; conditions: preemergence
# How it was run: as §2
# eastern black nightshade = test: Test C pre-/postemergence herbicide test; assay type: in vivo, Solanum ptycanthum; conditions: preemergence; for Plant response rating (0 = no effect, 100 = complete control), Nightshade: 125 g ai/ha
# How it was run: as §2
# velvetleaf = test: Test C pre-/postemergence herbicide test; assay type: in vivo, Abutilon theophrasti; conditions: preemergence; for Plant response rating (0 = no effect, 100 = complete control), Velvetleaf: 125 g ai/ha
# How it was run: as §2
# [2] = system: smallflower umbrella sedge; test: Test C flooded paddy test; assay type: in vivo, Cyperus difformis; conditions: for Plant response rating, Sedge, Umbrella: 500 g ai/ha, visual rating after 12 to 14 days
# ducksalad [3] = test: Test C flooded paddy test; assay type: in vivo, Heteranthera limosa; conditions: for Plant response rating, Ducksalad: 500 g ai/ha, visual rating after 12 to 14 days
# [4] = 500 g ai/ha, scale 0 to 100 (0 no effect, 100 complete control), visual, 12 to 14 days
# [5] = 125 g ai/ha, scale 0 to 100 (0 no effect, 100 complete control)
# [6] = 250 g ai/ha, scale of 0 to 100, 0 is no effect, 100 is complete control
# [7] = scale 0 to 100 (0 no effect, 100 complete control)
structure (smiles),measurement,setting,value
CCc1nn(C(C)C)nc1C(=O)Nc1cccc(C(=O)N(C)CC)c1 [Compound 386],Rice plant response rating,rice,80
same,Ducksalad plant response rating,ducksalad [1],90
same,Barnyardgrass plant response rating,barnyardgrass,90
same,"Plant response rating, Cocklebur","cocklebur; 62 g ai/ha, scale 0 to 100",0
same,"Plant response rating (0 = no effect, 100 = complete control), Cocklebur",cocklebur,20
same,"Plant response rating, Cocklebur","cocklebur; 250 g ai/ha, scale 0-100",30
same,"Plant response rating, Cocklebur",cocklebur; [4],70
same,"Plant response rating, Corn","corn; 62 g ai/ha, scale 0 to 100",10
same,"Plant response rating (0 = no effect, 100 = complete control), Corn",corn,60
same,"Plant response rating, Corn","corn; 250 g ai/ha, scale 0-100",80
same,"Plant response rating, Corn",corn; [4],85
same,"Plant response rating, Goosegrass","goosegrass; 62 g ai/ha, scale 0 to 100",85
same,"Plant response rating (0 = no effect, 100 = complete control), Goosegrass",goosegrass,95
same,"Plant response rating, Goosegrass","goosegrass; 250 g ai/ha, scale 0-100",95
same,"Plant response rating, Goosegrass",goosegrass; [4],95
same,"Plant response rating, Johnsongrass","johnsongrass; 62 g ai/ha, scale 0 to 100",85
same,"Plant response rating (0 = no effect, 100 = complete control), Johnsongrass",johnsongrass,100
same,"Plant response rating, Johnsongrass","johnsongrass; 250 g ai/ha, scale 0-100",100
same,"Plant response rating, Johnsongrass",johnsongrass; [4],100
same,"Plant response rating, Lambsquarters","lambsquarters; 62 g ai/ha, scale 0 to 100",100
same,"Plant response rating (0 = no effect, 100 = complete control), Lambsquarters",lambsquarters; 125 g ai/ha,100
same,"Plant response rating, Lambsquarters","lambsquarters; 250 g ai/ha, scale 0-100",100
same,"Plant response rating, Lambsquarters",lambsquarters; [4],100
same,"Plant response rating, Nightshade","eastern black nightshade; 62 g ai/ha, scale 0 to 100",90
same,"Plant response rating (0 = no effect, 100 = complete control), Nightshade",eastern black nightshade,95
same,"Plant response rating, Nightshade","eastern black nightshade; 250 g ai/ha, scale 0-100",95
same,"Plant response rating, Nightshade",eastern black nightshade; [4],100
same,"Plant response rating, Velvetleaf","velvetleaf; 62 g ai/ha, scale 0 to 100",70
same,"Plant response rating (0 = no effect, 100 = complete control), Velvetleaf",velvetleaf,100
same,"Plant response rating, Velvetleaf","velvetleaf; 250 g ai/ha, scale 0-100",100
same,"Plant response rating, Velvetleaf",velvetleaf; [4],100
same,"Sedge, Umbrella plant response rating","[2]; 62 g ai/ha, scale 0 to 100",65
same,"Sedge, Umbrella plant response rating",[2]; [5],75
same,"Sedge, Umbrella plant response rating",[2]; [6],80
same,"Plant response rating, Sedge, Umbrella",[2]; [7],80
same,Ducksalad plant response rating,"ducksalad [3]; 62 g ai/ha, scale 0 to 100",25
same,Ducksalad plant response rating,ducksalad [3]; [5],60
same,Ducksalad plant response rating,ducksalad [3]; [6],85
same,"Plant response rating, Ducksalad",ducksalad [3]; [7],85
CCc1nn(C(C)C)nc1C(=O)Nc1cccc(C(=S)N(C)C)c1 [Compound 409],Rice plant response rating,rice,70
same,Ducksalad plant response rating,ducksalad [1],70
same,Barnyardgrass plant response rating,barnyardgrass,90
same,"Plant response rating, Cocklebur","cocklebur; 62 g ai/ha, scale 0 to 100",0
same,"Plant response rating (0 = no effect, 100 = complete control), Cocklebur",cocklebur,30
same,"Plant response rating, Cocklebur","cocklebur; 250 g ai/ha, scale 0-100",70
same,"Plant response rating, Cocklebur",cocklebur; [4],80
same,"Plant response rating, Corn","corn; 62 g ai/ha, scale 0 to 100",0
same,"Plant response rating (0 = no effect, 100 = complete control), Corn",corn,5
same,"Plant response rating, Corn","corn; 250 g ai/ha, scale 0-100",75
same,"Plant response rating, Corn",corn; [4],80
same,"Plant response rating, Goosegrass","goosegrass; 62 g ai/ha, scale 0 to 100",80
same,"Plant response rating (0 = no effect, 100 = complete control), Goosegrass",goosegrass,90
same,"Plant response rating, Goosegrass","goosegrass; 250 g ai/ha, scale 0-100",95
same,"Plant response rating, Goosegrass",goosegrass; [4],95
same,"Plant response rating, Johnsongrass","johnsongrass; 62 g ai/ha, scale 0 to 100",35
same,"Plant response rating (0 = no effect, 100 = complete control), Johnsongrass",johnsongrass,80
same,"Plant response rating, Johnsongrass","johnsongrass; 250 g ai/ha, scale 0-100",95
same,"Plant response rating, Johnsongrass",johnsongrass; [4],95
same,"Plant response rating, Lambsquarters","lambsquarters; 62 g ai/ha, scale 0 to 100",100
same,"Plant response rating, Lambsquarters","lambsquarters; 250 g ai/ha, scale 0-100",100
same,"Plant response rating, Lambsquarters",lambsquarters; [4],100
same,"Plant response rating, Nightshade","eastern black nightshade; 62 g ai/ha, scale 0 to 100",45
same,"Plant response rating (0 = no effect, 100 = complete control), Nightshade",eastern black nightshade,85
same,"Plant response rating, Nightshade",eastern black nightshade; [4],95
same,"Plant response rating, Velvetleaf","velvetleaf; 62 g ai/ha, scale 0 to 100",5
same,"Plant response rating (0 = no effect, 100 = complete control), Velvetleaf",velvetleaf,30
same,"Plant response rating, Velvetleaf",velvetleaf; [4],100
same,"Sedge, Umbrella plant response rating","[2]; 62 g ai/ha, scale 0 to 100",70
same,"Sedge, Umbrella plant response rating",[2]; [5],75
same,"Sedge, Umbrella plant response rating",[2]; [6],85
same,"Plant response rating, Sedge, Umbrella",[2]; [7],90
same,Ducksalad plant response rating,"ducksalad [3]; 62 g ai/ha, scale 0 to 100",30
same,Ducksalad plant response rating,ducksalad [3]; [5],30
same,Ducksalad plant response rating,ducksalad [3]; [6],80
same,"Plant response rating, Ducksalad",ducksalad [3]; [7],85
